# According to ChEMBL document CHEMBL1149925, “Application of hygromycin a structure activity relationships to the antibiotic A201A” (1993):
# What was measured:
# [1] = test system: Pasteurella multocida; experiment: Tested for antibacterial activity expressed as minimum inhibitory concentration against Pasteurella multocida; type: functional
# [2] = test system: Brachyspira hyodysenteriae; experiment: Tested for antibacterial activity expressed as minimum inhibitory concentration against Serpulina (Treponema) hyodysenteriae; type: functional
SMILES,MIC [1] [mg/L],MIC [2] [mg/L]
C=CCOc1ccc(/C=C(\C)C(=O)N[C@H]2C(O)[C@H](n3cnc4c(N(C)C)ncnc43)O[C@@H]2CO)cc1 (some centres not stated),> 200,50
C=CCOc1ccc(/C=C(\C)C(=O)N[C@@H]2[C@H](O)[C@@H](O)[C@H]3OCO[C@H]3[C@@H]2O)cc1,50,6.25
C=CCOc1ccc(/C=C(\C)C(=O)N[C@H]2C(O)[C@H](n3cnc4c(N(C)C)ncnc43)O[C@@H]2CO)cc1O (some centres not stated),6.25,1.56
COc1ccc(/C=C(\C)C(=O)N[C@@H]2[C@H](O)[C@@H](O)[C@H]3OCO[C@H]3[C@@H]2O)cc1,> 200,> 200
C=CCOc1ccc(/C=C(\C)C(=O)N[C@H]2[C@@H](O)[C@H](OC)O[C@@H]2CO)cc1O,> 200,> 200
C=CCOc1ccc(/C=C(\C)C(=O)N[C@@H]2[C@H](O)[C@@H](O)[C@H]3OCO[C@H]3[C@@H]2O)cc1O,3.13,0.78
COc1ccc(/C=C(\C)C(=O)N[C@H]2C(O)[C@H](n3cnc4c(N(C)C)ncnc43)O[C@@H]2CO)cc1 (some centres not stated),200,50
CO/C(CO[C@H]1O[C@H](C)[C@@H](OC)[C@H](OC)[C@@H]1O)=C1\O[C@@H](Oc2ccc(/C=C(\C)C(=O)NC3C(O)[C@H](n4cnc5c(N(C)C)ncnc54)O[C@@H]3CO)cc2)[C@@H](O)[C@@H]1O (some centres not stated),3.13,3.13
C/C(=C\c1ccc(O[C@@H]2O[C@H]([C@H](C)O)[C@@H](O)[C@@H]2O)c(O)c1)C(=O)N[C@H]1C(O)[C@H](n2cnc3c(N(C)C)ncnc32)O[C@@H]1CO (some centres not stated),200,200
CC(=O)[C@H]1O[C@@H](Oc2ccc(/C=C(\C)C(=O)N[C@@H]3[C@H](O)[C@@H](O)[C@H]4OCO[C@H]4[C@@H]3O)cc2O)[C@@H](O)[C@@H]1O [HYGROMYCIN A],0.78,0.78
C/C(=C\c1ccc(O[C@@H]2O[C@H]([C@H](C)O)[C@@H](O)[C@@H]2O)c(O)c1)C(=O)N[C@@H]1[C@H](O)[C@@H](O)[C@H]2OCO[C@H]2[C@@H]1O,6.25,3.13
